These are literature values, as cited in paper PMC10795913 (The Journal of Clinical Endocrinology and Metabolism, 2023).

For this data set, the system named is patients. The note with it: different assays, not directly comparable; cited from earlier work.

For semaglutide, the “ADA incidence in published studies” value is listed as “up to 4.3%”.

Take liraglutide: the “ADA incidence in published studies” value was “up to 8.7%”. In the case of lixisenatide, the “ADA incidence in published studies” value is listed as “up to 71.2%”.
